Results: patent US20190374536A1, “METHODS OF USING FASN INHIBITORS” (FORMA Therapeutics, Inc., priority 2016, published 2019)
Marks after values point to notes of the source that are not given here.

Columns and labels:
[1] = tested on: TH17 cells differentiated in-vitro; assay: TH17 differentiation assay: inhibition of IL-17 secretion; format: cell-based; set-up: activity: dose or concentration left out as unconfirmed; conditions: Homo sapiens; for inhibition at 1 µM: IL-17 secretion; for activity: TH17 cells differentiated in-vitro, read-out: IL17 secretion (% of DMSO)
Excerpt: CD4+ T cells were isolated using CD4+ T cell isolation kit (Miltenyi Biotech), activated with CD3/CD28 microbeads and cultured for 7-10 days in the presence of IL-1β, IL-6, IL-21, I-23 and TGFβ and test compounds. Cells cultured with DMSO or without cytokines and/or microbeads were used as negative controls.
Read out: (1) At day 7-10, the supernatants were collected and tested for soluble 1-17. (2) Cells were also harvested and stained for intra-cellular IL-17A. (3) Cells were also stained separately by Annexin/PI for cell viability. (4) Pictures of cultures were taken for each condition.

HFD rat model = assay: High fat diet (HFD) fed rat model: steatosis, plasma/liver TG, plasma leptin; format: in vivo; conditions: HFD rats, 5 mg/kg QD
Excerpt: Steatosis is caused by the accumulation of triglycerides (TG) in the liver, and as such, decreases in TG may represent a potential marker for activity on steatosis. The obese phenotype of HFD model is dependent on the incorporation of high dietary fat and DNL-derived fat. […] The key endpoints of this study were to evaluate the relationship between dose schedule and exposure with changes in liver steatosis score and liver TG. For these studies, male SD rats (6-8 week old) were fed a high fat diet (D124942, Research Diets Inc.) for four weeks to develop the obese phenotype and then sorted into treatment groups (N=8) based on mean body weight. […] Rosiglitazone 5 mg/kg QD was included as a positive control. Plasma and serum samples were collected weekly throughout the study. After 28 days of treatment, animals were sacrificed and liver and plasma samples were collected. Livers were fixed in formalin, processed for H&E staining, and evaluated by a pathologist specializing in NASH.
Two HFD studies were conducted. […] The second HFD study investigated the endpoints of steatosis and liver and plasma markers of lipogenesis (including TG and FFA).

HSD rat model = assay: High-sucrose diet (HSD) fed rat model: plasma/liver TG, plasma leptin; format: in vivo; conditions: HSD rats, 5 mg/kg QD
Excerpt: A HSD represents an alternative experimental model for obesity and steatosis. In this model, 60-70% of the caloric intake is from simple carbohydrates, and thus, the primary source of increased TG is through DNL.
Male SD rats (6-8 week old) were fed a HSD (D10001, Research Diets Inc.) for six weeks to develop the obese phenotype and then sorted into treatment groups (N=8 each) based on mean body weight.

| SMILES | inhibition at 1 µM [1] | activity [1] | further results |
| --- | --- | --- | --- |
| Cn1ncc2ccc(-c3ccc(C(=O)N4CCN(C(=O)C5(N)CC5)CC4)cc3)cc21 [compound 5] | 74% | 26% | – |
| O=C(c1ccc(-c2nc3ccc(Cl)cc3o2)cc1)N1CCN(C(=O)C2(O)CC2)CC1 [compound 2] | 79% | 21% | – |
| C[C@@H]1CN(C(=O)c2ccc(-c3nc4ccc(F)cc4o3)cc2)CCN1C(=O)C1(O)CC1 [compound 7] | 66% | 34% | – |
| C[C@H]1CN(C(=O)c2ccc(-c3ccc4c(c3)ncn4C)cc2F)CCN1C(=O)C1(O)CC1 [compound 8] | 77% | 23% | – |
| O=C(c1ccc(-c2nc3ccc(F)cc3o2)cc1F)N1CCN(C(=O)C2(O)CC2)CC1 [compound 6] | 53% | 47% | – |
| O=C(c1ccc(-c2cc(Cl)ccc2F)cc1)N1CCN(C(=O)C2(O)CC2)CC1 [compound 3] | 75% | 25% | – |
| O=C(c1ccc(-c2nc3ccc(F)cc3o2)cc1)N1CCN(C(=O)C2(O)CC2)CC1 [compound 1] | 46% | 54% | – |
| Cn1cnc2cc(-c3ccc(C(=O)N4CCN(C(=O)C5(O)CC5)CC4)c(F)c3)ccc21 [compound 4] | 85% | 15% | – |
| Cn1cnc2cc(-c3ccc(C(=O)N4CCN(C(=O)C5(O)CC5)CC4)cc3)ccc21 [compound 9] | 76% | 24% | – |
| C[C@H]1CN(C(=O)c2ccc(-c3nc4ccc(Cl)cc4o3)cc2)CCN1C(=O)C1(O)CC1 [compound 11] | 67% | 33% | – |
| CN(CCOc1ccc(CC2SC(=O)NC2=O)cc1)c1ccccn1 (stereo not shown) [Rosiglitazone] | – | – | Plasma TG % Decrease of treatment group (mean) vs. vehicle treated HFD group (mean) (HFD rat model; Day 14): 52.5%; Plasma TG Raw Data (Mean ± SEM) (HFD rat model; Day 14): 0.48 ± 0.02 mmol/L; Plasma TG % Decrease of treatment group (mean) vs. vehicle treated HFD group (mean) (HFD rat model; Day 26): 60.0%; Plasma TG Raw Data (Mean ± SEM) (HFD rat model; Day 26): 0.46 ± 0.05 mmol/L; Liver TG % Decrease of treatment group (mean) vs. vehicle treated HFD group (mean) (HFD rat model; Day 28): 70.0%; Liver TG Raw Data (Mean ± SEM) (HFD rat model; Day 28): 17.2 ± 0.8 µmol/g; Plasma Leptin (Mean ± SEM) (HFD rat model; Day 28): 16.0 ± 1.2 ng/mL; Plasma TG % Decrease of treatment group (mean) vs. vehicle treated HSD group (mean) (HSD rat model; Day 14): 60.6%; Plasma TG Raw Data (Mean ± SEM) (HSD rat model; Day 14): 1.07 ± 0.10 mmol/L; Plasma TG % Decrease of treatment group (mean) vs. vehicle treated HSD group (mean) (HSD rat model; Day 26): 62.3%; Plasma TG Raw Data (Mean ± SEM) (HSD rat model; Day 26): 1.24 ± 0.17 mmol/L; Liver TG % Decrease of treatment group (mean) vs. vehicle treated HSD group (mean) (HSD rat model; Day 28): 41.2 * %; Liver TG Raw Data (Mean ± SEM) (HSD rat model; Day 28): 8.5 ± 1.5 µmol/g; Plasma Leptin (Mean ± SEM) (HSD rat model; Day 28): 12.6 ± 2.5 ng/mL |
